# Results reported in paper PMC8890100 (Chemical Science, 2022).
# What was measured:
# PPARγ·MED1 = PPARγ·MED1 (Homo sapiens, UniProt P37231); test: 2D-ITC of ligand to PPARγ in the presence of MED1 in cell and syringe; assay type: binding; settings: for cooperativity value α: ITC, PPARγ·ligand·MED1 complex; for −TΔΔS: cooperative effect of MED1 on ligand binding
# PPARγ–LBD = target: T1, PPARγ–LBD (Homo sapiens, UniProt P37231); test: 2D fluorescence anisotropy; assay type: binding; settings: ligand excess vs no ligand
# T1 sequence (P37231 238-503 limits assumed): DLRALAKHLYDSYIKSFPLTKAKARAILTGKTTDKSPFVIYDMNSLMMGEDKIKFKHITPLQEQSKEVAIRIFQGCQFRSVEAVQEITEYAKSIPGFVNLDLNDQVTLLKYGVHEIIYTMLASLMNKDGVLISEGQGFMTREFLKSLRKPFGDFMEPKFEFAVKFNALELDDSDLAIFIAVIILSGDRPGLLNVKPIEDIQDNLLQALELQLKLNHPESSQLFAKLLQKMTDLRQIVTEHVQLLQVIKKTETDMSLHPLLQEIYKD
SMILES,cooperativity value α (PPARγ·MED1),−TΔΔS (PPARγ·MED1) [kcal/mol],EC50 shift (fold enhancement of PPARγ/MED1 EC50) (PPARγ–LBD),ΔH (PPARγ·MED1; ligand binding to PPARγ in the presence of MED1) [kcal/mol]
CN(CCOc1ccc(CC2SC(=O)NC2=O)cc1)c1ccccn1 (centres unmarked) [Rosiglitazone],28,-2.3,–,–
CC[C@@H](Oc1cccc(CN(CCCOc2ccc(OC)cc2)c2nc3ccccc3o2)c1)C(=O)O [Pemafibrate],–,–,smaller EC50 shift,–
CCCc1nc2c(C)cc(-c3nc4ccccc4n3C)cc2n1Cc1ccc(-c2ccccc2C(=O)O)cc1 [Telmisartan],–,–,smaller EC50 shift,–
CCO[C@@H](Cc1ccc(OCCc2ccc(OS(C)(=O)=O)cc2)cc1)C(=O)O [Tesaglitazar],18,-3.5,24 fold,21.0
